Laboratory results taken from PubChem BioAssay AID1918996 (Molecular Pharmacology Branch, DTP, NCI, 2023).

Tested on: 349418-098-R-PDC complex spheroid growth
Experiment: Anticancer human tumor 349418-098-R-PDC patient-derived lung adenocarcinoma cell line growth inhibition [AhR]
Settings: for IC50: curve of first compound; for viability, T/C: stronger effect = lower value
Text: Multicellular complex tumor spheroid response to aryl hydrocarbon receptor antagonists in combination with a variety of drugs and investigational agents in selected tumor cell lines
The current study was undertaken to assess response to aryl hydrocarbon receptor antagonists in combination with standard-of-care drugs and investigational agents in solid tumor complex spheroid models. Complex spheroids include a stromal component modeled by human endothelial cells (HUVEC) and fibroblasts modeled by human mesenchymal stem cells (MSCs). The concentration ranges selected for each drug and investigational agent were based upon clinically achievable concentrations if the clinical Cmax of the agent was known.
Compounds. The drugs and investigational agents: BAY 2416964 (NSC825713), GNF351 (NSC835774), CH-223191 (NSC835775), CPI-455 (NSC825282), aza-TdCyd (NSC777586), decitabine (NSC127716), belinostat (NSC758774), entinostat (NSC756642), pevonedistat (NSC761192), tazemetostat (NSC777109), talazoparib (NSC765396), olaparib (NSC753686), selinexor (NSC780203), nedisertib (M3814, NSC802822), bortezomib (NSC756655), venetoclax (NSC766270), doxorubicin (NSC123127), elimusertib (BAY189344, NSC800525), ceralasertib (AZD6738, NSC777638), TAK-243 (NSC785004), alisertib (NSC759677), etoposide (NSC141540), topotecan (NSC609699), eribulin (NSC707389), gemcitabine (NSC613327), carboplatin (NSC241240), cisplatin (NSC119875), and SN-38 (NSC673596) were obtained from the National Cancer Institute (NCI) Developmental Therapeutics Program Chemical Repository (32). The FDA-approved anticancer drug set is available from the Developmental Therapeutics Program at https://dtp.cancer.gov/organization/dscb/obtaining/available plates.htm. […] The stock solutions were prepared in dimethyl sulfoxide (DMSO, Sigma-Aldrich, St. Louis, MO, cat. D2650), except for the platinum compounds which were prepared in saline (Quality Biological, Gaithersburg, MD, cat. 114-055-101), at 800-fold the tested concentration and stored at -70 degrees C prior to their use. All drugs and investigational agents were tested over a range starting from a high concentration at or near the clinical Cmax and decreasing in half-log increments. If the clinical Cmax for an agent had not been determined, the highest concentration tested was 10 microM (Table 1).
Cell Culture. All cells were maintained in an incubator at 37 degrees C and 5% CO2 with 95% humidity. The PDC lines were cultured according to standard operating procedures established by the NCI PDMR (https://pdmr.cancer.gov). Briefly, all PDCs were thawed and cultured in Matrigel-coated flasks prepared with a working solution of 1X Ham's F-12 nutrient mix, without supplementation (Invitrogen, Waltham, MA, cat. 11765054), 100 U/mL penicillin-streptomycin (Invitrogen, cat. 15140122), and 2.5% Matrigel (Corning Inc., Corning, NY, cat. 354248) for the first three passages. All PDCs were cultured in complete DMEM/F-12 media containing advanced DMEM/F-12 (Invitrogen, cat. 12634028), 4.9% defined fetal bovine serum, heat inactivated (HyClone Laboratories Inc., Logan, UT, cat. SH30070.03HI), 389 ng/mL hydrocortisone (Sigma-Aldrich, cat. H4001), 9.7 ng/mL human EGF recombinant protein (Invitrogen, cat. PHG0313), 23.4 microg/mL adenine (Sigma-Aldrich, cat. A2786), 97.3 U/mL penicillin-streptomycin (Invitrogen, cat. 15140122), 1.9 mM L-glutamine (Invitrogen, cat. 25030081), and 9.7 microM Y-27632 dihydrochloride (Tocris Bioscience, Bristol, United Kingdom, cat. 1254). The PDCs were cultured in complete DMEM/F12 media without 10 microM Y-27632 dihydrochloride for at least two passages prior to the screen. The established cell lines NCI-H1341 and […] were cultured in DMEM/F-12, HEPES (Invitrogen, cat. 11330032), 5% defined fetal bovine serum (HyClone Laboratories Inc., cat. SH30070.03), ITS premix universal culture supplement [insulin (5 microg/mL), transferrin (5 microg/mL), and selenious acid (5 ng/mL)] […]

[1] = second compound 0.1 µM, first compound 0.0316 µM
[2] = second compound 0.1 µM, first compound 0.1 µM
[3] = second compound 0.1 µM, first compound 0.316 µM
[4] = second compound 0.1 µM, first compound 1 µM
[5] = second compound 0.1 µM, first compound 3.16 µM
[6] = second compound 0.1 µM, first compound 10 µM
[7] = second compound 0.316 µM, first compound 0.0316 µM
[8] = second compound 0.316 µM, first compound 0.1 µM
[9] = second compound 0.316 µM, first compound 0.316 µM
[10] = second compound 0.316 µM, first compound 1 µM
[11] = second compound 0.316 µM, first compound 3.16 µM
[12] = second compound 0.316 µM, first compound 10 µM
[13] = second compound 1 µM, first compound 0.0316 µM
[14] = second compound 1 µM, first compound 0.1 µM
[15] = second compound 1 µM, first compound 0.316 µM
[16] = second compound 1 µM, first compound 1 µM
[17] = second compound 1 µM, first compound 3.16 µM
[18] = second compound 1 µM, first compound 10 µM
[19] = second compound 3.16 µM, first compound 0.0316 µM
[20] = second compound 3.16 µM, first compound 0.1 µM
[21] = second compound 3.16 µM, first compound 0.316 µM
[22] = second compound 3.16 µM, first compound 1 µM
[23] = second compound 3.16 µM, first compound 3.16 µM
[24] = second compound 3.16 µM, first compound 10 µM
[25] = second compound 10 µM, first compound 0.0316 µM
[26] = second compound 10 µM, first compound 0.1 µM
[27] = second compound 10 µM, first compound 0.316 µM
[28] = second compound 10 µM, first compound 1 µM
[29] = second compound 10 µM, first compound 3.16 µM
[30] = second compound 10 µM, first compound 10 µM
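Note: spheroids exposed to agents for seven days before luminescence viability read.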
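Throughout, for viability, T/C: spheroids also contain HUVEC endothelial cells and human MSC stroma.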

In the case of `CCc1c2c(nc3ccc(O)cc13)-c1cc3c(c(=O)n1C2)COC(=O)[C@]3(O)CC` + CC(CO)NC(=O)c1cc(-c2ccc(Cl)cc2)nn(-c2cnn(C)c2)c1=O, the IC50 (second compound 0.1 µM) is reported as < 0.000949 µM, the IC50 (second compound 0.316 µM) is reported as < 0.000949 µM and the IC50 (second compound 1 µM) is reported as < 0.000949 µM. For the same compound, the IC50 (second compound 3.16 µM) was < 0.000949 µM, the IC50 (second compound 10 µM) was < 0.000949 µM and the viability, T/C (second compound 0.1 µM, first compound 0.000949 µM) was 42.1%. For the same compound, the viability, T/C (second compound 0.1 µM, first compound 0.003 µM) was 37.1%, the viability, T/C (second compound 0.1 µM, first compound 0.00949 µM) was 18.3% and the viability, T/C (second compound 0.1 µM, first compound 0.03 µM) was 8.94%. For the same compound, the viability, T/C (second compound 0.1 µM, first compound 0.0949 µM) was 5.8%, the viability, T/C (second compound 0.1 µM, first compound 0.3 µM) was 3.72% and the viability, T/C (second compound 0.316 µM, first compound 0.000949 µM) was 34.2%. It also gave a viability, T/C (second compound 0.316 µM, first compound 0.003 µM) of 30.5%, a viability, T/C (second compound 0.316 µM, first compound 0.00949 µM) of 13.1% and a viability, T/C (second compound 0.316 µM, first compound 0.03 µM) of 7.93%. The viability, T/C (second compound 0.316 µM, first compound 0.0949 µM) was 5.5%, the viability, T/C (second compound 0.316 µM, first compound 0.3 µM) was 4.2% and the viability, T/C (second compound 1 µM, first compound 0.000949 µM) was 33.9%. The viability, T/C (second compound 1 µM, first compound 0.003 µM) was 21%, the viability, T/C (second compound 1 µM, first compound 0.00949 µM) was 14.2% and the viability, T/C (second compound 1 µM, first compound 0.03 µM) was 9.54%. It also gave a viability, T/C (second compound 1 µM, first compound 0.0949 µM) of 8.88%, a viability, T/C (second compound 1 µM, first compound 0.3 µM) of 4.3% and a viability, T/C (second compound 3.16 µM, first compound 0.000949 µM) of 22.4%. For the same compound, the viability, T/C (second compound 3.16 µM, first compound 0.003 µM) was 18.9%, the viability, T/C (second compound 3.16 µM, first compound 0.00949 µM) was 13% and the viability, T/C (second compound 3.16 µM, first compound 0.03 µM) was 7.97%. It also gave a viability, T/C (second compound 3.16 µM, first compound 0.0949 µM) of 6.24%, a viability, T/C (second compound 3.16 µM, first compound 0.3 µM) of 4.5% and a viability, T/C (second compound 10 µM, first compound 0.000949 µM) of 20.1%. For the same compound, the viability, T/C (second compound 10 µM, first compound 0.003 µM) was 17.4%, the viability, T/C (second compound 10 µM, first compound 0.00949 µM) was 12.2% and the viability, T/C (second compound 10 µM, first compound 0.03 µM) was 8.79%. It also gave a viability, T/C (second compound 10 µM, first compound 0.0949 µM) of 6.32% and a viability, T/C (second compound 10 µM, first compound 0.3 µM) of 5.7%.

For `Nc1ccn(C2OC(CO)C(O)C2(F)F)c(=O)n1` (stereo not given) + CC(CO)NC(=O)c1cc(-c2ccc(Cl)cc2)nn(-c2cnn(C)c2)c1=O, the IC50 (second compound 0.1 µM) was < 0.0316 µM, the IC50 (second compound 0.316 µM) was < 0.0316 µM and the IC50 (second compound 1 µM) was < 0.0316 µM. For the same compound, the IC50 (second compound 3.16 µM) was < 0.0316 µM, the IC50 (second compound 10 µM) was < 0.0316 µM and the viability, T/C [1] was 11.7%. For the same compound, the viability, T/C [2] was 13.3%, the viability, T/C [3] was 12.8% and the viability, T/C [4] was 10.8%. The viability, T/C [5] was 9.89%, the viability, T/C [6] was 7.31% and the viability, T/C [7] was 11.5%. The viability, T/C [8] was 12.5%, the viability, T/C [9] was 13.3% and the viability, T/C [10] was 10.6%. It also gave a viability, T/C [11] of 9.24%, a viability, T/C [12] of 6.37% and a viability, T/C [13] of 12.7%. The viability, T/C [14] was 13.5%, the viability, T/C [15] was 13.3% and the viability, T/C [16] was 11.2%. It also gave a viability, T/C [17] of 8.78%, a viability, T/C [18] of 5.77% and a viability, T/C [19] of 12.1%. The viability, T/C [20] was 13.4%, the viability, T/C [21] was 12.8% and the viability, T/C [22] was 9.14%. It also gave a viability, T/C [23] of 7.92%, a viability, T/C [24] of 7.72% and a viability, T/C [25] of 12.3%. The viability, T/C [26] was 11%, the viability, T/C [27] was 11.6% and the viability, T/C [28] was 8.92%. The viability, T/C [29] was 7.77% and the viability, T/C [30] was 8.23%.

`O=C(c1cc(Cc2n[nH]c(=O)c3ccccc23)ccc1F)N1CCN(C(=O)C2CC2)CC1` + CC(CO)NC(=O)c1cc(-c2ccc(Cl)cc2)nn(-c2cnn(C)c2)c1=O was tested, and the IC50 (second compound 0.1 µM) was > 10 µM, the IC50 (second compound 0.316 µM) was 5.21 µM and the IC50 (second compound 1 µM) was 7.43 µM. It also gave an IC50 (second compound 3.16 µM) of 3.54 µM, an IC50 (second compound 10 µM) of 0.482 µM and a viability, T/C [1] of 84.2%. For the same compound, the viability, T/C [2] was 81.6%, the viability, T/C [3] was 82.8% and the viability, T/C [4] was 101%. For the same compound, the viability, T/C [5] was 64.2%, the viability, T/C [6] was 60.1% and the viability, T/C [7] was 101%. The viability, T/C [8] was 101%, the viability, T/C [9] was 89.7% and the viability, T/C [10] was 64.4%. It also gave a viability, T/C [11] of 63.6%, a viability, T/C [12] of 39.2% and a viability, T/C [13] of 95.5%. For the same compound, the viability, T/C [14] was 74.4%, the viability, T/C [15] was 73.7% and the viability, T/C [16] was 66.9%. The viability, T/C [17] was 59.8%, the viability, T/C [18] was 44.8% and the viability, T/C [19] was 85.4%. The viability, T/C [20] was 87.9%, the viability, T/C [21] was 77.9% and the viability, T/C [22] was 61.2%. The viability, T/C [23] was 55.2%, the viability, T/C [24] was 33.7% and the viability, T/C [25] was 42.1%. The viability, T/C [26] was 60.6%, the viability, T/C [27] was 58.6% and the viability, T/C [28] was 43.5%. The viability, T/C [29] was 38.3% and the viability, T/C [30] was 33.7%.
